What was measured:
BALB/c mice = assay: In vivo serum cytokine induction; parameters: species or system mouse
Description: To assess serum cytokine levels, BALB/c mice (n=5) were injected intraperitoneally (i.p), subcutaneously (s.c) or intramuscularly (i.m) with IMO compounds at 10 mg/kg (single dose). Sera was collected by retro-orbital bleeding at 4 hrs of IMO administration and determined IL-112 and IL-6 by sandwich ELISA. Cytokine antibodies and standards were purchased from PharMingen (San Diego, Calif.).
To evaluate the immunopharmacological effects in vivo, IMO compounds, CpG immunomers, and non-CpG oligos were administered to BALB/c mice i.p, s.c or i.m at a dose of 10 mg/kg and their serum was evaluated for IL-12 and IL-6 after 4 hrs.

CT26.WT = assay: Peritoneal disseminated CT26.WT tumor, survival; format: in vivo, mouse; conditions: peritoneal administration, 1 mg/kg; FIG. 17B
Description: (§1) For peritoneal disseminated tumor model, 3×10^5 CT26.WT or CT26.CL25 cells and 5×10^4 B16.F0 cells were injected i.p to BALB/c or C57BL/6 mice respectively. […] Mice were checked daily for tumor growth and for survival. Each dose group had 6 to 10 mice.

[1] = tested on: CT26.WT and CT26.CL25 tumors; assay: Rechallenge of long term survivors with CT26.WT or CT26.CL25; format: in vivo, mouse
From the text: (§2) Long term survivors (n=5) of IMO compound treated mice with CT26.WT or CT26.CL25 peritoneal tumor were rechallenged i.p. or i.v. with 5×10^5 of the parental tumor cells without any further treatment. To evaluate the specificity of the IMO induced antitumor response in tumor bearing mice, these long term survivors (n=5) were also rechallenged with syngeneic, non-organ-related mammary tumor 4T1 (5×10^5). For i.v. rechallenged groups, mice were sacrificed on day 13, lungs were harvested and lung metastases were counted.

4T1 mammary carcinoma = assay: Rechallenge of long term survivors with 4T1; format: in vivo, mouse; conditions: FIG. 20C
From the text: as §2

CT26.CL25 tumor cells = assay: Adoptive transfer of splenocytes, CT26.CL25 challenge; format: in vivo, mouse; conditions: FIG. 21A
From the text: (§3) To study adoptive immune cell transfer, BALB/c mice were adoptively i.p. transferred with 5×10^6 of syngeneic splenocytes either from naïve BALB/c mice or from IMO treated long term survivors bearing CT26.WT or CT26.CL25, the mice (5/group) were then cross challenged i.p. with 3×10^5 CT26.WT, CT26.CL25 or 4T1 cells on day 3.

4T1 breast tumor = 4T1 breast tumor in BALB/c mice, combination with doxorubicin; format: in vivo, mouse; conditions: IMO 2 1 mg/kg peritumoral, doxorubicin 30 mg/kg i.p; FIG. 24A
Description: For the 4T1 tumor models, 5×10^5 cells/mouse in. 100 μl PBS were implanted into BALB/c mice in the lower right flank. On day 5 when the average tumor size reached 50 mm^2, the mice were given i.p injections of 30 mg/kg doxorubicin (Bedford lab, Bedford, Ohio) for three times on days 5, 6 and 7. IMO 2 (1 mg/kg) dissolved in 100 μl PBS was administrated by peritumoral injection at twice a week interval for a total of six times.

[2] = tested on: Her-2 overexpressing human breast tumors (BT474); assay: Her-2 overexpressing human breast tumors (BT474) in nude mice, combination with Herceptin; format: in vivo, mouse; conditions: compared to the PBS control group; Herceptin 10 mg/kg i.p, IMO 1 mg/kg peritumoral, twice a week for 6 weeks; FIG. 29
[3] = In vitro cytokine induction profiles of IMO compounds (FIG. 16); format: cell-based
B16.F0 melanoma [4] = assay: Subcutaneous B16.F0 melanoma in C57BL/6 mice; format: in vivo, mouse; conditions: 1 mg/kg peritumoral every other day for 10 times from day 8; FIG. 22A
Description: (§4) For subcutaneous solid tumor models, 10^6 CT26.CL25 cells/mouse or 5×10^5 B16.F0 cells/mouse in 100 μl of PBS were implanted into BALB/c or C57BL/6 mice in the lower right flank. The tumor size reached to 50 to 200 mg on day 6 for CT26.CL25 and on day 8 for B16.F0 post tumor inoculation. The tumor bearing mice were then treated with peritumoral injection of IMO compounds or non-CpG DNA control at a dose of 1 mg/kg every other day for 10 times. Tumor growth was recorded with the use of calipers, by measuring the long and short diameters of the tumor. Tumor volumes were measured with a caliper and the formula (0.5×length×width^2) was applied to determine tumor growth kinetics.
IMO 2 was further tested for its antitumor activity in mice bearing B 16.F0 murine melanoma. C57BL/6 mice bearing B16.F0 melanoma were treated with 1 mg/kg IMO 2 by peritumoral administration every other day for 10 times starting on day 8 following tumor inoculation.

CD69+ and CD86+ cells = assay: Activation of CD69+ and CD86+ cells in peripheral blood; format: in vivo, mouse; conditions: docetaxel 30 mg/kg days 1 and 3, IMO 2 5 mg/kg days 1, 3, 5, 7; FIG. 24C
CT26.CL25 = assay: Peritoneal disseminated CT26.CL25 tumor, survival; format: in vivo, mouse; conditions: peritoneal administration, 1 mg/kg; FIG. 17C
Description: as §1

[5] = tested on: Her-2 overexpressing human breast tumors (BT474); assay: Example 23 tumor model, Rituxan and/or IMO 2; format: in vivo, mouse; conditions: Rituxan days 5, 7, 9, 11; IMO 2 days 5, 7, 9, 11, 13; FIG. 30
Description: Nude mice bearing subcutaneously implanted Her-2 overexpressing human breast tumors (BT474). Tumor bearing mice were treated by intraperitoneal injections of Rituxan on days 5, 7, 9 and 11 and/or IMO 2 on days 5, 7, 9, 11 and 13.

B16.F0 melanoma [6] = assay: B16.F0 melanoma in wt, IL-6 ko and IL-12 ko C57BL/6 mice; format: in vivo, mouse; conditions: FIG. 23
From the text: Female BALB/c (H-2^d), C57BL/6, and IL-6 and IL-12 knockout (ko) (both ko on a C57BL/6 background) mice 5-8 weeks of age, were purchased from Jackson Laboratory (Bar Harbor, Me.). CT26.WT (ATCC, Rockville, Md.) is a carcinogen-induced BALB/c undifferentiated colon carcinoma. CT26.CL25 (ATCC, Rockville, Md.) is a subclone of CT26.WT that has been transduced with Escherichia coli β-gal gene. 4T1 is a mammary adenocarcinoma cell line in BALB/c mice. B16.F0 is a C57BL/6 derived melanoma (ATCC). CT26.WT and 4T1 cells were cultured in RPMI 1640, 10% heat-inactivated fetal bovine serum (FBS, Atlas Biologicals, Fort Colins, Colo.), 2 mM L-glutamine, 100 μg/ml streptomycin, 100 U/ml penicillin (Mediatech, Va.). CT26.CL25 is maintained in the same medium plus 400 μg/ml G418 sulfate (Life Technologies, Grand Island, N.Y.). B 16.F0 cells were grown in DMEM containing 10% FBS and antibiotics.
For peritoneal disseminated tumor model, 3×10^5 CT26.WT or CT26.CL25 cells and 5×10^4 B16.F0 cells were injected i.p to BALB/c or C57BL/6 mice respectively. IMO compounds or non-CpG DNA (2.5 mg/kg) were administrated i.p. twice per week starting on day 1 for a total of 5 times. Mice were checked daily for tumor growth and for survival. Each dose group had 6 to 10 mice.

[7] = Total serum IgG1 and IgG2a in B16.F0 tumor bearing C57BL/6 mice; format: in vivo, mouse; conditions: compared with control non-CpG DNA
Description: For the analysis of serum antibodies, 96 well plates were incubated at room temperature for 3 hours with β-gal protein (Calbiochem Novabiochem, Pasadena, Calif.) at 2 μg/ml in phosphate buffered saline (PBS). The solid phase was incubated overnight at 4° C. with normal mouse serum (NMS) or antiserum, or β-gal specific monoclonal Ab (Calbiochem Novabiochem, Pasadena, Calif.) followed by an incubation with horseradish peroxidase (HRP)-conjugated antibodies specific for mouse IgG (H+L). For isotype analysis, HRP-labelled goat anti-mouse IgG1 and IgG2a (Southern Biotechnology, Birmingham, Ala.) were used. The binding of antibodies was measured as absorbance at 405 nm after reaction of the immune complexes with ABTS substrate (Zymed, San Francisco, Calif.).

CT26.CL25 colon tumor = assay: Subcutaneous CT26.CL25 colon tumor in BALB/c mice; format: in vivo, mouse; conditions: day 24, compared with non-CpG DNA treated mice; 1 mg/kg peritumoral
Description: as §4
The antitumor activity of IMO compounds in a murine colon carcinoma CT26.CL25 model was evaluated. BALB/c mice bearing CT26.CL25 subcutaneous solid tumors were treated with 1 mg/kg IMO compounds by peritumoral administration every other day for 10 times starting on day 6 following tumor inoculation.

4T1 tumor cells = assay: Adoptive transfer of splenocytes, 4T1 challenge; format: in vivo, mouse; conditions: FIG. 21B
From the text: as §3

[8] = Intramuscular (i.m), 10 mg/kg, 4 hrs
[9] = Intraperitoneal (i.p), 10 mg/kg, 4 hrs
[10] = Subcutaneous (s.c), 10 mg/kg, 4 hrs

## IMO 2: IMO compound of FIG. 15 (SEQ ID NO 24) containing a synthetic CpR motif, mouse-specific immunostimulatory motif (DNA TCTGACNTTCT; synthetic CpR motif, chemistry not fully specified)
BALB/c mice; 10 mg/kg, all three routes of administration, 4 hrs
  Serum IL-6 induction: significantly lower serum IL-6
BALB/c mice; 4 hr after administration, FIG. 25B
  Serum IL-12 secretion in mice: induced IL-12 secretion
BALB/c mice; [8]
  IL-6 (serum): 1.2 ± 0.1 ng/mL
  IL-12 (serum): 87.9 ± 3.2 ng/mL
BALB/c mice; [9]
  IL-6 (serum): 2.5 ± 0.2 ng/mL
  IL-12 (serum): 51.7 ± 0.9 ng/mL
BALB/c mice; [10]
  IL-6 (serum): 2.3 ± 0.4 ng/mL
  IL-12 (serum): 136.9 ± 17 ng/mL
CT26.WT
  Mice survival: marked increase of mice survival
[1]; data not shown
  Rejection of pulmonary metastases after i.v. inoculation: able to reject pulmonary metastases of the same tumor
[1]; mice cleared of CT26.CL25 peritoneal tumor, FIGS. 20A and B
  Protection against i.p rechallenge: rejected i.p rechallenge with CT26.WT and CT26.CL25 tumors
4T1 mammary carcinoma
  Protection against 4T1 mammary carcinoma challenge: not protected
CT26.CL25 tumor cells
  Protection by transferred splenocytes against CT26.CL25 challenge: protective against a lethal tumor challenge
4T1 breast tumor
  Inhibition of 4T1 tumor growth: strong inhibition
[2]
  Tumor growth inhibition: 65%
[3]
  IL-6 production in vitro: lower IL-6 production
  IL-12 secretion in vitro: strong IL-12 secretion
B16.F0 melanoma [4]
  Tumor growth inhibition: 71%
CD69+ and CD86+ cells
  Percentage of CD69+ and CD86+ cells: significant increase in the percentage of CD69+ and CD86+cells
CT26.CL25
  Mice survival: marked increase of mice survival
[5]
  Tumor growth: significantly inhibited
B16.F0 melanoma [6]; IL-6 ko C57BL/6 mice
  Tumor growth: significant reduction in tumor growth
B16.F0 melanoma [6]; wt C57BL/6 mice
  Tumor growth: significant reduction in tumor growth
[7]; FIG. 22B
  Total IgG1 levels: decrease or no change
[7]; FIG. 22C
  Total circulating serum IgG2a: significant increase
CT26.CL25 colon tumor
  Average tumor growth inhibition: 85%
4T1 tumor cells
  Protection by transferred splenocytes against 4T1 challenge: did not extend to 4T1 tumor cell challenge

Reference: patent publication US7569554B2, “Synergistic treatment of cancer using immunomers in conjunction with therapeutic agents” (Idera Pharmaceuticals, Inc., priority 2003, dated 2009)
